{
  "source": "patent US20080008772A1",
  "about": "“Narcotic biphasic release compositions and methods for treatment of coughing, sneezing, rhinorrhea, and/or nasal obstruction” (Everett Laboratories, Inc., priority 2006, published 2008)",
  "origin": "cited, not measured here",
  "key": {"[1]": {"details": "in vivo"}},
  "data": [
    {"smiles": "COc1ccccc1OCC(O)CO", "note": "(centres unmarked) [Guaifenesin, 3-(2-methoxyphenoxy)-1,2 propanediol]", "values": [
      {"measurement": "plasma half life", "setting": "[1]", "value": "one"}
    ]},
    {"smiles": "COc1ccc2c3c1O[C@H]1C(=O)CC[C@H]4[C@@H](C2)N(C)CC[C@]314", "note": "[hydrocodone, 4,5α-epoxy-3-methoxy-17-methylmorphinan-6-one]", "values": [
      {"measurement": "analgesic effects", "setting": "at therapeutic antitussive doses", "value": "does exert analgesic effects"},
      {"measurement": "effects on the cardiovascular system", "setting": "therapeutic doses", "value": "insignificant"},
      {"measurement": "constipation effects", "setting": "versus morphine and codeine", "value": "much weaker than that of morphine and no stronger than that of codeine"}
    ]},
    {"smiles": "COc1ccc2c3c1O[C@H]1C(=O)CC[C@H]4[C@@H](C2)N(C)CC[C@]314.COc1ccc2c3c1O[C@H]1C(=O)CC[C@H]4[C@@H](C2)N(C)CC[C@]314.O.O.O.O.O.O=C(O)C(O)C(O)C(=O)O.O=C(O)C(O)C(O)C(=O)O", "note": "[Hydrocodone bitartrate, 4,5a-epoxy-3-methoxy-17-methylmorphinan-6-one tartrate (1:1)hydrate (2:5)]", "values": [
      {"measurement": "sedative action", "setting": "at equi-effective doses, versus codeine", "value": "greater than codeine"}
    ]}
  ]
}
